# Tested on: control human primary myoblasts
# Test: Expression microarray of primary myoblasts transduced with lentivirus carrying DUX4-fl, DUX4-s or GFP
# Protocol: Primary human myoblasts were collected and cultured as previously described (Snider et al., 2010). Primary myoblasts were maintained at or below 70% confluency for proliferation. For differentiation, cells were allowed to reach 95-100% confluency in growth medium. Once confluency was reached, the cells were changed to differentiation medium (F10 media supplemented with 1% horse serum, 10 μg/mL insulin, and 10 μg/mL transferrin, penicillin/streptomycin) and maintained for 4 days. Human RD cells were grown in DMEM in 10% bovine calf serum (Hyclone) and penicillin/streptomycin. The primary myoblasts were transduced with lentivirus carrying DUX-fl, DUX4- or GFP (MOI=15).
# Expression microarrays were performed on the transduced cells at 24 hours after transduction as follows. […] Samples were analyzed by Illumina Human Whole Genome microarrays. Probe intensities were corrected, normalized, and summarized by the Lumi package of Bioconductor (Du et al., 2008). Differentially expressed genes were identified by the LIMMA package of Bioconductor (Wettenhall and Smyth, 2004). Gene set enrichment analysis (GSEA) was performed using the Bioconductor GOstats package (Falcon and Gentleman, 2007).
substance,measurement,setting,value
"DUX4-fl: full-length DUX4 protein (SEQ ID NO:110), expressed from lentiviral or pCS2 vectors or in vitro translated",fc of DENND5A (expression array),Refseq NM_015213.2,−1.037
same,fc of FEM1B (expression array),Refseq NM_015322.3,−0.5708
same,fc of PANX1 (expression array),Refseq NM_015368.3,−0.114
same,fc of AASDHPPT (expression array),Refseq NM_015423.2,−0.238
same,MTHFD1L fc,Refseq NM_015440.3,−1.173
same,C2orf32 fc,Refseq NM_015463.1,−1.1
same,PVRL3 expression fc,Refseq NM_015480.1,2.223
same,NGDN expression fc,Refseq NM_015514.1,2.058
same,fc of RRM2B (expression array),Refseq NM_015713.3,−1.01
same,MBD2 expression fc,Refseq NM_015832.3,1.818
same,fc of MBTPS2 (expression array),Refseq NM_015884.1,−0.6539
same,ARS2 expression fc,Refseq NM_015908.4,2.602
same,GSTK1 fc,Refseq NM_015917.1,−1.079
same,NOP58 expression fc,Refseq NM_015934.3,1.887
same,CRLF3 expression fc,Refseq NM_015986.2,1.912
same,fc of TTC15 (expression array),Refseq NM_016030.5,−1.015
same,ISOC1 expression fc,Refseq NM_016048.1,2.003
same,MED31 expression fc,Refseq NM_016060.2,2.055
same,fc of TRPV2 (expression array),Refseq NM_016113.3,−1.02
same,CERCAM fc,Refseq NM_016174.3,−1.121
same,DBR1 expression fc,Refseq NM_016216.2,3.379
same,POLR3K expression fc,Refseq NM_016310.2,1.95
same,HERC5 expression fc,"Refseq NM_016323.2, cultured human skeletal muscle",−3.202
same,fc of CENPF (expression array),Refseq NM_016343.3,−0.4122
same,CWC15 expression fc,Refseq NM_016403.3,2.643
same,fc of TMEM9 (expression array),Refseq NM_016456.2,−1.008
same,RAB6B expression fc,Refseq NM_016577.3,3.17
same,SLC15A3 expression fc,"Refseq NM_016582.1, cultured human skeletal muscle",−3.754
same,FKBP11 fc,Refseq NM_016594.1,−1.125
same,ARMCX1 fc,Refseq NM_016608.1,−1.116
same,C8orf55 fc,Refseq NM_016647.2,−1.082
same,HOXC13 fc,Refseq NM_017410.2,−1.107
same,USP18 expression fc,"Refseq NM_017414.3, cultured human skeletal muscle",−2.497
same,PARP14 expression fc,"Refseq NM_017554.1, cultured human skeletal muscle",−2.825
same,fc of SLC43A3 (expression array),Refseq NM_017611.2,−1.026
same,NOTCH1 fc,Refseq NM_017617.3,−1.08
same,KIF21A expression fc,Refseq NM_017641.2,1.837
same,fc of AHI1 (expression array),Refseq NM_017651.3,−0.5927
same,SAMD9 expression fc,"Refseq NM_017654.2, cultured human skeletal muscle",−2.863
same,FAM46C expression fc,Refseq NM_017709.3,2.389
same,RETSAT expression fc,"Refseq NM_017750.2, cultured human skeletal muscle",−1.929
same,LYAR expression fc,Refseq NM_017816.1,1.977
same,ZSCAN2 expression fc,Refseq NM_017894.4,2.151
same,HERC6 expression fc,"Refseq NM_017912.3, cultured human skeletal muscle",−3.728
same,PID1 fc,Refseq NM_017933.3,−1.128
same,ZNHIT6 expression fc,Refseq NM_017953.2,3.519
same,C14orf102 expression fc,Refseq NM_017970.2,2.529
same,fc of WIPI1 (expression array),Refseq NM_017983.4,−1.022
same,RNF31 fc,Refseq NM_017999.4,−1.08
same,FRMD4A fc,Refseq NM_018027.3,−1.164
same,FAM90A1 expression fc,Refseq NM_018088.3,3.636
same,fc of RBM23 (expression array),Refseq NM_018107.4,−1.022
same,PNPO fc,Refseq NM_018129.2,−1.13
same,SEC61A2 expression fc,Refseq NM_018144.2,1.837
same,NADSYN1 fc,Refseq NM_018161.4,−1.086
same,TMEM140 expression fc,"Refseq NM_018295.2, cultured human skeletal muscle",−2.946
same,BRIX1 expression fc,Refseq NM_018321.3,1.886
same,DRAM1 fc,Refseq NM_018370.2,−1.087
same,LSG1 expression fc,Refseq NM_018385.1,1.994
same,TBC1D2 fc,Refseq NM_018421.2,−1.075
same,RRN3 expression fc,Refseq NM_018427.3,2.068
same,ZNF302 fc,Refseq NM_018443.2,−1.164
same,fc of GLT8D1 (expression array),Refseq NM_018446.2,−1.021
same,BEX1 fc,Refseq NM_018476.3,−1.097
same,SLC35E3 fc,Refseq NM_018656.2,−1.132
same,DEFB103B expression fc,Refseq NM_018661.3,2.499
same,fc of SULF2 (expression array),Refseq NM_018837.2,−1.048
same,PDE7B fc,Refseq NM_018945.3,−1.116
same,NANS expression fc,Refseq NM_018946.2,1.872
same,POLR1B expression fc,Refseq NM_019014.3,1.904
same,CCNJ expression fc,Refseq NM_019084.2,2.695
same,fc of HOXA5 (expression array),Refseq NM_019102.2,−1.005
same,PNO1 expression fc,Refseq NM_020143.2,2.151
same,KTELC1 fc,Refseq NM_020231.3,−1.073
same,C1orf63 expression fc,Refseq NM_020317.3,2.19
same,ZMIZ1 fc,Refseq NM_020338.2,−1.165
same,TRIM49 expression fc,Refseq NM_020358.2,6.551
same,LYRM1 fc,Refseq NM_020424.2,−1.126
same,SLC44A2 fc,Refseq NM_020428.2,−1.158
same,PCBP3 fc,Refseq NM_020528.1,−1.122
same,NFKBIA expression fc,"Refseq NM_020529.1, cultured human skeletal muscle",−3.004
same,fc of RCN3 (expression array),Refseq NM_020650.2,−1.062
same,PELI1 expression fc,Refseq NM_020651.2,2.886
same,fc of FAM62B (expression array),Refseq NM_020728.1,−0.7938
same,HECW2 fc,Refseq NM_020760.1,−1.167
same,ZNF319 fc,Refseq NM_020807.1,−1.119
same,OSBPL8 expression fc,Refseq NM_020841.4,1.95
same,USP29 expression fc,Refseq NM_020903.2,2.597
same,fc of RNF213 (expression array),Refseq NM_020914.3,−1.024
same,fc of FAM160B1 (expression array),Refseq NM_020940.3,−1.051
same,fc of IGDCC4 (expression array),Refseq NM_020962.1,−1.054
same,RFPL1 expression fc,Refseq NM_021026.2,6.264
same,IFITM3 expression fc,"Refseq NM_021034.2, cultured human skeletal muscle",−1.949
same,NEFH expression fc,Refseq NM_021076.2,1.936
same,fc of SLC8A1 (expression array),Refseq NM_021097.2,−0.4596
same,PSAT1 fc,Refseq NM_021154.3,−1.076
same,RAB40C fc,Refseq NM_021168.2,−1.168
same,fc of SLC30A1 (expression array),Refseq NM_021194.2,−0.3462
same,CTDSP1 fc,Refseq NM_021198.1,−1.122
same,ARHGAP22 fc,Refseq NM_021226.2,−1.084
same,fc of NTN4 (expression array),Refseq NM_021229.3,−1.022
same,PELI2 expression fc,Refseq NM_021255.2,2.782
same,PLEKHA2 fc,Refseq NM_021623.1,−1.077
same,AVPI1 expression fc,Refseq NM_021732.1,2.022
same,fc of FAM3A (expression array),Refseq NM_021806.1,−1.022
same,APOBEC3G expression fc,"Refseq NM_021822.1, cultured human skeletal muscle",−2.012
same,fc of C14orf93 (expression array),Refseq NM_021944.1,−1.063
same,HSPA2 expression fc,Refseq NM_021979.3,3.67
same,CXCL16 fc,Refseq NM_022059.1,−1.09
same,NOD2 fc,Refseq NM_022162.1,−1.135
same,IFIH1 expression fc,"Refseq NM_022168.2, cultured human skeletal muscle",−3.705
same,HS1BP3 fc,Refseq NM_022460.3,−1.078
same,C14orf173 fc,Refseq NM_022489.2,−1.167
same,FEZ1 fc,Refseq NM_022549.2,−1.073
same,HIPK2 fc,Refseq NM_022740.2,−1.173
same,fc of MOSC1 (expression array),Refseq NM_022746.2,−1.034
same,PARP12 expression fc,"Refseq NM_022750.2, cultured human skeletal muscle",−3.165
same,CRTC3 fc,Refseq NM_022769.3,−1.138
same,FAM129B fc,Refseq NM_022833.2,−1.126
same,IFI6 expression fc,"Refseq NM_022872.2, cultured human skeletal muscle",−4.24
same,FGFR3 expression fc,Refseq NM_022965.1,3.112
same,PRAMEF1 expression fc,Refseq NM_023013.1,8.072
same,PRAMEF2 expression fc,Refseq NM_023014.1,6.439
same,C8orf33 expression fc,Refseq NM_023080.1,2.251
same,GRAMD3 fc,Refseq NM_023927.1,−1.115
same,NEUROG2 expression fc,Refseq NM_024019.2,3.857
same,NUP37 fc,Refseq NM_024057.2,−1.075
same,PRRG4 expression fc,Refseq NM_024081.4,2.369
same,TRIM48 expression fc,Refseq NM_024114.2,7.88
same,DHX58 expression fc,"Refseq NM_024119.2, cultured human skeletal muscle",−2.836
same,PRKAG2 fc,Refseq NM_024429.1,−1.099
same,fc of FAM65A (expression array),Refseq NM_024519.2,−1.053
same,fc of ZC3HAV1 (expression array),Refseq NM_024625.3,−0.8233
same,YRDC expression fc,Refseq NM_024640.3,2.601
same,NPEPL1 fc,Refseq NM_024663.3,−1.113
same,SNIP1 expression fc,Refseq NM_024700.2,2.104
same,fc of FAM57A (expression array),Refseq NM_024792.1,−1.045
same,C13orf34 expression fc,Refseq NM_024808.2,2.492
same,fc of NUDT18 (expression array),Refseq NM_024815.3,−1.034
same,fc of ZNF672 (expression array),Refseq NM_024836.1,−1.034
same,C14orf159 expression fc,"Refseq NM_024952.5, cultured human skeletal muscle",−2.07
same,NRSN2 fc,Refseq NM_024958.1,−1.091
same,SLC24A6 fc,Refseq NM_024959.2,−1.099
same,CSRNP3 expression fc,Refseq NM_024969.2,2.496
same,fc of ULBP1 (expression array),Refseq NM_025218.2,−1.025
same,C6orf148 expression fc,Refseq NM_030568.2,6.759
same,KLHL15 expression fc,Refseq NM_030624.1,3.373
same,fc of ZBP1 (expression array),Refseq NM_030776.1,−0.3281
same,SLC2A10 fc,Refseq NM_030777.3,−1.119
same,SYNC1 fc,Refseq NM_030786.1,−1.127
same,PDRG1 expression fc,Refseq NM_030815.2,1.783
same,UNC93B1 expression fc,"Refseq NM_030930.2, cultured human skeletal muscle",−1.961
same,PPP1R14C expression fc,Refseq NM_030949.2,3.049
same,TRIM56 fc,Refseq NM_030961.1,−1.14
same,fc of RNF146 (expression array),Refseq NM_030963.2,−1.02
same,ADPGK expression fc,Refseq NM_031284.3,2.233
same,C11orf68 fc,Refseq NM_031450.2,−1.142
same,FAM107B expression fc,Refseq NM_031453.2,2.529
same,PARP9 expression fc,"Refseq NM_031458.1, cultured human skeletal muscle",−2.098
same,IFI27L2 fc,Refseq NM_032036.2,−1.137
same,SFRS2B expression fc,Refseq NM_032102.2,4.215

# Source: patent US20140242093A1, “METHODS AND COMPOSITIONS FOR MODULATING THE INNATE IMMUNE RESPONSE AND/OR MYOGENESIS IN A MAMMALIAN SUBJECT” (FRED HUTCHINSON CANCER RESEARCH CENTER, priority 2011, published 2014)
